# Measurements taken from article PMC9516332 (Frontiers in Oncology, 2022).
# Where two headings read alike, the source gives them in different places.
# Key:
# 134 cancer cell lines = assay: Cell viability assay (ATPlite, 72 hours), IC50 on cancer cell line panel
# AP-1060 (ETV6-NTRK3) = assay: Cell viability assay; conditions: read-out: IC50 in cell proliferation assay
smiles,measurement,setting,value
O=C(c1ccc(F)c(F)c1Nc1ccc(I)cc1F)N1CC(O)([C@@H]2CCCCN2)C1 [cobimetinib],IC50,"134 cancer cell lines; Homo sapiens, MV4-11, read-out: IC50 in cell proliferation assay, MV4-11 cell line (FLT3 ITD)",111 nM
same,IC50,"134 cancer cell lines; Homo sapiens, MeWo, read-out: IC50 in cell proliferation assay, MeWo cell line",330 nM
same,IC50,"134 cancer cell lines; Homo sapiens, NCCIT, read-out: IC50 in cell proliferation assay, NCC-IT cell line",1290 nM
same,IC50,"134 cancer cell lines; Homo sapiens, NCI-H82, read-out: IC50 in cell proliferation assay, cell line NCI-H82",8220 nM
same,IC50,"134 cancer cell lines; Homo sapiens, NCI-H460, read-out: IC50 in cell proliferation assay, NCI-H460 cell line",77 nM
same,IC50,"134 cancer cell lines; Homo sapiens, NCI-H661, read-out: IC50 in cell proliferation assay, NCI-H661 cell line",> 10000 nM
same,IC50,"134 cancer cell lines; Homo sapiens, NCI-H716, read-out: IC50 in cell proliferation assay, cell line NCI-H716 (FGFR2-COL14A1)",921 nM
same,IC50,"134 cancer cell lines; Homo sapiens, NCI-H1650, read-out: IC50 in cell proliferation assay, NCI-H1650 cell line (EGFR exon19del)",527 nM
same,IC50,"134 cancer cell lines; Homo sapiens, NCI-H1975, read-out: IC50 in cell proliferation assay, NCI-H1975 cell line (EGFR p.L858R + p.T790M)",98 nM
same,IC50,"134 cancer cell lines; Homo sapiens, NCI-H2228, read-out: IC50 in cell proliferation assay, NCI-H2228 cell line (EML4-ALK)",721 nM
same,IC50,"134 cancer cell lines; Homo sapiens, OVCAR-3, read-out: IC50 in cell proliferation assay, cell line OVCAR-3",> 10000 nM
same,IC50,"134 cancer cell lines; Homo sapiens, PFSK-1, read-out: IC50 in cell proliferation assay, cell line PFSK-1",> 10000 nM
same,IC50,"134 cancer cell lines; Homo sapiens, RL95-2, read-out: IC50 in cell proliferation assay, cell line RL95-2 (EGFR p.A289V)",34 nM
same,IC50,"134 cancer cell lines; Homo sapiens, RPMI-7951, read-out: IC50 in cell proliferation assay, cell line RPMI-7951 (BRAF p.V600E)",20 nM
same,IC50,"134 cancer cell lines; Homo sapiens, RS4-11, read-out: IC50 in cell proliferation assay, cell line RS4;11",> 10000 nM
same,IC50,"134 cancer cell lines; Homo sapiens, Rec1, read-out: IC50 in cell proliferation assay, cell line REC-1",6390 nM
same,IC50,"134 cancer cell lines; Homo sapiens, SHP77, read-out: IC50 in cell proliferation assay, cell line SHP-77",> 10000 nM
same,IC50,"134 cancer cell lines; Homo sapiens, SK-BR-3, read-out: IC50 in cell proliferation assay, cell line SK-BR-3 (ERBB2 amplification)",> 10000 nM
same,IC50,"134 cancer cell lines; Homo sapiens, SK-N-AS, read-out: IC50 in cell proliferation assay, cell line SK-N-AS",12 nM
same,IC50,"134 cancer cell lines; Homo sapiens, SK-N-FI, read-out: IC50 in cell proliferation assay, cell line SK-N-FI",82 nM
same,IC50,"134 cancer cell lines; Homo sapiens, SK-N-MC, read-out: IC50 in cell proliferation assay, cell line SK-N-MC",7630 nM
same,IC50,"134 cancer cell lines; Homo sapiens, SK-N-SH, read-out: IC50 in cell proliferation assay, cell line SK-N-SH (ALK p.F1174L)",37 nM
same,IC50,"134 cancer cell lines; Homo sapiens, SNU-5, read-out: IC50 in cell proliferation assay, cell line SNU-5 (MET amplification)",47 nM
same,IC50,"134 cancer cell lines; Homo sapiens, SNU-16, read-out: IC50 in cell proliferation assay, cell line SNU-16 (FGFR2 amplification)",2490 nM
same,IC50,"134 cancer cell lines; Homo sapiens, SNU-C2B, read-out: IC50 in cell proliferation assay, cell line SNU-C2B (EGFR p.R165Q)",324 nM
same,IC50,"134 cancer cell lines; Homo sapiens, SU-DHL-1, read-out: IC50 in cell proliferation assay, cell line SU-DHL-1 (NPM1-ALK)",478 nM
same,IC50,"134 cancer cell lines; Homo sapiens, SU-DHL-6, read-out: IC50 in cell proliferation assay, cell line SU-DHL-6",2020 nM
same,IC50,"134 cancer cell lines; Homo sapiens, SUP-T1, read-out: IC50 in cell proliferation assay, cell line SUP-T1",> 10000 nM
same,IC50,"134 cancer cell lines; Homo sapiens, SW48, read-out: IC50 in cell proliferation assay, cell line SW48 (EGFR p.G719S)",59 nM
same,IC50,"134 cancer cell lines; Homo sapiens, SW480, read-out: IC50 in cell proliferation assay, cell line SW480",342 nM
same,IC50,"134 cancer cell lines; Homo sapiens, SW626, read-out: IC50 in cell proliferation assay, cell line SW626",146 nM
same,IC50,"134 cancer cell lines; Homo sapiens, SW780, read-out: IC50 in cell proliferation assay, cell line SW780 (FGFR3-BAIAP2L1)",127 nM
same,IC50,"134 cancer cell lines; Homo sapiens, SW837, read-out: IC50 in cell proliferation assay, cell line SW837",137 nM
same,IC50,"134 cancer cell lines; Homo sapiens, SW872, read-out: IC50 in cell proliferation assay, cell line SW872 (BRAF p.V600E)",46 nM
same,IC50,"134 cancer cell lines; Homo sapiens, SW900, read-out: IC50 in cell proliferation assay, cell line SW900",295 nM
same,IC50,"134 cancer cell lines; Homo sapiens, SW948, read-out: IC50 in cell proliferation assay, cell line SW948",87 nM
same,IC50,"134 cancer cell lines; Homo sapiens, SW982, read-out: IC50 in cell proliferation assay, cell line SW982 (BRAF p.V600E)",1700 nM
same,IC50,"134 cancer cell lines; Homo sapiens, SW-620, read-out: IC50 in cell proliferation assay, cell line SW620",93 nM
same,IC50,"134 cancer cell lines; Homo sapiens, T98G, read-out: IC50 in cell proliferation assay, cell line T98G",3340 nM
same,IC50,"134 cancer cell lines; Homo sapiens, TCC-SUP, read-out: IC50 in cell proliferation assay, cell line TCCSUP",483 nM
same,IC50,"134 cancer cell lines; Homo sapiens, THP-1, read-out: IC50 in cell proliferation assay, cell line THP-1",20 nM
same,IC50,"134 cancer cell lines; Homo sapiens, U2OS, read-out: IC50 in cell proliferation assay, cell line U2OS",279 nM
same,IC50,"134 cancer cell lines; Homo sapiens, U-87 MG, read-out: IC50 in cell proliferation assay, cell line U-87MG ATCC",925 nM
same,IC50,"134 cancer cell lines; Homo sapiens, U-118-MG, read-out: IC50 in cell proliferation assay, cell line U-118MG",147 nM
same,IC50,"134 cancer cell lines; Homo sapiens, UMUC3, read-out: IC50 in cell proliferation assay, cell line UM-UC-3",43 nM
same,IC50,"134 cancer cell lines; Hs766T, read-out: IC50 in cell proliferation assay, Hs 766T cell line",6 nM
same,IC50,"134 cancer cell lines; L-82, read-out: IC50 in cell proliferation assay, L-82 cell line (NPM1-ALK)",250 nM
same,IC50,"134 cancer cell lines; Rh30, read-out: IC50 in cell proliferation assay, cell line Rh30",3410 nM
same,IC50,"134 cancer cell lines; read-out: IC50 in cell proliferation assay, 11-18 cell line (EGFR p.L858R)",> 10000 nM
same,IC50,"134 cancer cell lines; read-out: IC50 in cell proliferation assay, Hs 852.T cell line",592 nM
same,IC50,"134 cancer cell lines; read-out: IC50 in cell proliferation assay, JAR cell line",6290 nM
same,IC50,"134 cancer cell lines; read-out: IC50 in cell proliferation assay, cell line 5637",452 nM
same,IC50,"134 cancer cell lines; read-out: IC50 in cell proliferation assay, cell line A-388",171 nM
same,IC50,"134 cancer cell lines; read-out: IC50 in cell proliferation assay, cell line DB",8690 nM
same,IC50,"134 cancer cell lines; read-out: IC50 in cell proliferation assay, cell line DEL (NPM1-ALK)",4200 nM
same,IC50,"134 cancer cell lines; read-out: IC50 in cell proliferation assay, cell line ES-2 (BRAF p.V600E)",32 nM
same,IC50,"134 cancer cell lines; read-out: IC50 in cell proliferation assay, cell line PA-1",496 nM
same,IC50,"134 cancer cell lines; read-out: IC50 in cell proliferation assay, cell line PC-3",> 10000 nM
same,IC50,"134 cancer cell lines; read-out: IC50 in cell proliferation assay, cell line RD",92 nM
same,IC50,"134 cancer cell lines; read-out: IC50 in cell proliferation assay, cell line RKO (BRAF p.V600E)",38 nM
same,IC50,"134 cancer cell lines; read-out: IC50 in cell proliferation assay, cell line RL",> 10000 nM
same,IC50,"134 cancer cell lines; read-out: IC50 in cell proliferation assay, cell line RT-4 (FGFR3-TACC3)",299 nM
same,IC50,"134 cancer cell lines; read-out: IC50 in cell proliferation assay, cell line SR (NPM1-ALK)",509 nM
same,IC50,"134 cancer cell lines; read-out: IC50 in cell proliferation assay, cell line T24",43 nM
same,IC50,"134 cancer cell lines; read-out: IC50 in cell proliferation assay, cell line TT (RET p.C634W)",225 nM
same,IC50,"134 cancer cell lines; read-out: IC50 in cell proliferation assay, cell line VA-ES-BJ",4580 nM
same,IC50,AP-1060 (ETV6-NTRK3),7330 nM
